Ends that are not written are not given here.
Legend:
[1] = tested on: human pancreatic ductal epithelial cells (HPNE)
[2] = tested on: human umbilical vein endothelial cells (HUVEC)
Procedure: (§1) The cytotoxicity of 73 synthetic peptides was evaluated using four human cell lines: human pancreatic ductal epithelial cells (HPNE), human embryonic kidney cells (HEK293T), human umbilical vein endothelial cells (HUVEC), and human bronchial epithelial cells (BEAS-2B). When cell density reached 70% confluence, the complete culture medium was replaced with serum-free maintenance medium, and peptides were added at a final concentration of 100 μM for 36 h. Control groups received only serum-free maintenance medium without peptides. Cell proliferation was assessed using the CCK-8 assay kit (Solarbio, CA1210) according to the manufacturer’s instructions.

[3] = tested on: human bronchial epithelial cells (BEAS-2B)
[4] = Electronic tongue analysis (Taste-Sensing System SA 402B); design: unit not given here; settings: reference solution 30 mM KCl + 0.3 mM tartaric acid as baseline, first measurement excluded; for Umami: sensor AAE; for Umami / Bitter / Sweet: detection threshold 0, room temperature; for Umami / Bitter / Sour / Salty: four replicates; for Sour: detection threshold -13, room temperature; for Salty: detection threshold -6, room temperature; for Sweet: measured five times
How it was run: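 Room-temperature electronic-tongue readings with five taste probes, calibrated against a reference of 30 mM KCl and 0.3 mM tartaric acid. Samples at 0.1 mg/mL and 1.0 mg/mL were measured four times, sweetness five times, and the first run was dropped. Detection cut-offs were sour −13, salty −6, others 0.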

[5] = tested on: human embryonic kidney cells (HEK293T)
Procedure: as §1

## DAAEK [TaPep2]
[1]
  Average cell viability, HPNE: 105.52
  Cell viability, HPNE, Data1: 116.01
  Cell viability, HPNE, Data2: 111.51
  Cell viability, HPNE, Data3: 89.05
[2]
  Average cell viability, HUVEC: 95.40
  Cell viability, HUVEC, Data1: 97.15
  Cell viability, HUVEC, Data2: 96.19
  Cell viability, HUVEC, Data3: 92.84
[3]
  Average cell viability, BEAS-2B: 107.18
  Cell viability, BEAS-2B, Data1: 116.05
  Cell viability, BEAS-2B, Data2: 111.86
  Cell viability, BEAS-2B, Data3: 93.62
[4]; peptide 0.1 mg/mL
  Umami: 1.21
[4]; peptide 1 mg/mL
  Umami: -4.05
[4]; sensor C00, peptide 0.1 mg/mL
  Bitter: 7.88
[4]; sensor C00, peptide 1 mg/mL
  Bitter: 2.74
[4]; sensor CA0, peptide 0.1 mg/mL
  Sour: -2.30
[4]; sensor CA0, peptide 1 mg/mL
  Sour: 12.60
[4]; sensor CT0, peptide 0.1 mg/mL
  Salty: -19.03
[4]; sensor CT0, peptide 1 mg/mL
  Salty: 13.52
[4]; sensor GL1, peptide 0.1 mg/mL
  Sweet: 6.09
[4]; sensor GL1, peptide 1 mg/mL
  Sweet: -5.50
[5]
  Average cell viability, HEK293T: 92.18
  Cell viability, HEK293T, Data1: 95.02
  Cell viability, HEK293T, Data2: 84.13
  Cell viability, HEK293T, Data3: 97.38

## LQDVVE [TaPep24]
[1]
  Average cell viability, HPNE: 93.71
  Cell viability, HPNE, Data1: 94.37
  Cell viability, HPNE, Data2: 92.98
  Cell viability, HPNE, Data3: 93.78
[2]
  Average cell viability, HUVEC: 103.54
  Cell viability, HUVEC, Data1: 91.48
  Cell viability, HUVEC, Data2: 106.25
  Cell viability, HUVEC, Data3: 112.88
[3]
  Average cell viability, BEAS-2B: 113.59
  Cell viability, BEAS-2B, Data1: 103.99
  Cell viability, BEAS-2B, Data2: 117.45
  Cell viability, BEAS-2B, Data3: 119.34
[4]; peptide 1 mg/mL
  Umami: -3.57
[4]; sensor C00, peptide 1 mg/mL
  Bitter: 3.73
[4]; sensor CA0, peptide 0.1 mg/mL
  Sour: -4.17
[4]; sensor CA0, peptide 1 mg/mL
  Sour: 9.09
[4]; sensor CT0, peptide 1 mg/mL
  Salty: 4.83
[4]; sensor GL1, peptide 0.1 mg/mL
  Sweet: 6.22
[4]; sensor GL1, peptide 1 mg/mL
  Sweet: -4.08
[5]
  Average cell viability, HEK293T: 99.02
  Cell viability, HEK293T, Data1: 102.40
  Cell viability, HEK293T, Data2: 97.85
  Cell viability, HEK293T, Data3: 96.81

## AWDGQ [TaPep73]
[1]
  Average cell viability, HPNE: 107.55
  Cell viability, HPNE, Data1: 109.82
  Cell viability, HPNE, Data2: 117.40
  Cell viability, HPNE, Data3: 95.44
[2]
  Average cell viability, HUVEC: 105.51
  Cell viability, HUVEC, Data1: 111.28
  Cell viability, HUVEC, Data2: 115.27
  Cell viability, HUVEC, Data3: 89.97
[3]
  Average cell viability, BEAS-2B: 106.58
  Cell viability, BEAS-2B, Data1: 95.61
  Cell viability, BEAS-2B, Data2: 116.85
  Cell viability, BEAS-2B, Data3: 107.28
[4]; peptide 0.1 mg/mL
  Umami: 0.77
[4]; peptide 1 mg/mL
  Umami: -5.41
[4]; sensor C00, peptide 0.1 mg/mL
  Bitter: 7.64
[4]; sensor C00, peptide 1 mg/mL
  Bitter: 4.33
[4]; sensor CA0, peptide 0.1 mg/mL
  Sour: -1.22
[4]; sensor CA0, peptide 1 mg/mL
  Sour: 13.38
[4]; sensor CT0, peptide 0.1 mg/mL
  Salty: -19.69
[4]; sensor CT0, peptide 1 mg/mL
  Salty: 8.78
[4]; sensor GL1, peptide 0.1 mg/mL
  Sweet: 4.76
[4]; sensor GL1, peptide 1 mg/mL
  Sweet: -5.09
[5]
  Average cell viability, HEK293T: 106.97
  Cell viability, HEK293T, Data1: 104.20
  Cell viability, HEK293T, Data2: 108.17
  Cell viability, HEK293T, Data3: 108.55

## EPKVLV [TaPep54]
[1]
  Average cell viability, HPNE: 100.23
  Cell viability, HPNE, Data1: 115.91
  Cell viability, HPNE, Data2: 95.44
  Cell viability, HPNE, Data3: 89.35
[2]
  Average cell viability, HUVEC: 110.64
  Cell viability, HUVEC, Data1: 113.84
  Cell viability, HUVEC, Data2: 114.72
  Cell viability, HUVEC, Data3: 103.38
[3]
  Average cell viability, BEAS-2B: 102.43
  Cell viability, BEAS-2B, Data1: 95.01
  Cell viability, BEAS-2B, Data2: 108.18
  Cell viability, BEAS-2B, Data3: 104.09
[4]; peptide 0.1 mg/mL
  Umami: 3.06
[4]; peptide 1 mg/mL
  Umami: -3.47
[4]; sensor C00, peptide 0.1 mg/mL
  Bitter: 7.63
[4]; sensor C00, peptide 1 mg/mL
  Bitter: 2.50
[4]; sensor CA0, peptide 0.1 mg/mL
  Sour: -7.11
[4]; sensor CA0, peptide 1 mg/mL
  Sour: 8.51
[4]; sensor CT0, peptide 0.1 mg/mL
  Salty: -20.20
[4]; sensor CT0, peptide 1 mg/mL
  Salty: 10.59
[4]; sensor GL1, peptide 0.1 mg/mL
  Sweet: 9.28
[4]; sensor GL1, peptide 1 mg/mL
  Sweet: -6.29
[5]
  Average cell viability, HEK293T: 102.24
  Cell viability, HEK293T, Data1: 103.15
  Cell viability, HEK293T, Data2: 102.49
  Cell viability, HEK293T, Data3: 101.07

From publication PMC12543283, “TastepepAI: An artificial intelligence platform for taste peptide de novo design” (PLOS Computational Biology, 2025)
